Test in all cases: NCI60 five-dose screen
Assay type in all cases: cell-based

One experiment concerns ACHN. The following applies: Homo sapiens, Renal Cancer. How it is done: (§1) Since all new conjugates (3a–h) had notable antiproliferative activities on several tumor cell lines in the course of the one-dose screening, they were subjected to a five-dose test. […] J. Mol. Sci. 2025, 26, 11063 10 of 10 S.3. NCI60 Screening A detailed description of the NCI screening procedures can also be found on the website of NCI [39], and in our previous work. S.3.1. One-Dose Screen All candidates were examined at first at a single high dose (10 μM) in the full NCI60 cell panel. The value reported for the one-dose test is growth relative to the no-drug control and relative to the time zero number of cells. This made possible the disclosure of both growth inhibition (numbers between 0 and 100) and lethality (numbers less than 0). For example, a value of 100 means no growth inhibition. A value of 20 would mean 80% growth inhibition. A value of 0 means no net growth over the course of the analysis. A value of −20 would mean 20% lethality. A value of −100 means all cells are dead. S.3.2. […] The human tumor cell lines of the cancer screening panel were grown in RPMI 1640 medium containing 5% fetal bovine serum and 2 mM l-glutamine. Characteristically, cells were injected in 96-well microtiter plates in 0.1 mL at plating densities ranging from 5000 to 40,000 cells/well, depending on the doubling time of individual cell lines. After cell inoculation, the microtiter plates were incubated at 37 °C, 5% carbon dioxide, 95% air, and 100% relative humidity for 24 hours before the addition of tested compounds. After 24 hours, 2 plates of each cell line were fixed in situ with Cl3COOH (TCA), to represent a measurement of the cell population for each cell line at the time of drug addition (tz). Tested compounds were solubilized in DMSO at 400-fold the desired final maximum test concentration and stored frozen before application. In the course of the drug addition, an aliquot of frozen concentrate was thawed and diluted to twice the desired final maximum test concentration with a complete medium containing 50 μg mL−1 gentamicin. Additional four, 10-fold or ½ log serial dilutions were produced to furnish a total of five drug concentrations plus control. Aliquots of 0.1 mL of these different drug dilutions were added to the appropriate microtiter wells already containing 0.1 mL of medium, resulting in the required final drug concentrations. Following drug addition, the plates were incubated at 37 °C, 5% carbon dioxide, 95% air, and 100% relative humidity for an additional 48 hours. For adherent cells, the test was finished by the addition of cold Cl3COOH. Cells were fixed in situ by the addition of 50 μL of cold 50% (w/v) Cl3COOH, and incubated at 4 °C for 1 hour. The supernatant was discarded, and the plates were washed with H2O (5×) and dried in air. Sulforhodamine B (SRB) solution (0.1 mL) at 0.4% (w/v) in 1% CH3COOH was added to each well, and plates were incubated at RT for 10 min. After staining, the unbound dye was removed by washing five times with 1% CH3COOH, and the plates were dried in the air. The bound stain is afterward solubilized with a 10 mM trizma base, and the absorbance is read on an automated plate reader at λ = 515 nm. Utilizing the seven absorbance measurements [time zero (tz), control growth (c), and test growth in the presence of the drug at the five concentration levels (ti)], the percentage growth was determined at each of the drug concentration levels. Growth inhibition (%) was calculated as: [(ti − tz)/(c − tz)] × 100, for concentrations where ti ≥ tz (1) [(ti − tz)/(tz)] × 100, for concentrations where ti < tz. (2) Three dose‒response parameters were calculated as follows. GI50 (growth inhibition of 50%) was determined from Equation (3), which is the drug concentration resulting in a 50% reduction in the net protein increase (as measured by SRB staining) in control cells in the course of the drug incubation. [(ti − tz)/(c − tz)] × 100 = 50 (3)

The next experiment relates to RPMI-8226. The following applies: Homo sapiens; RPMI-8226, Leukemia. How it is done:
as §1

In the next experiment the test system is EKVX. The note with it: Homo sapiens, Non-small-Cell Lung Cancer. How it is done:
as §1

The subject of the next experiment is MDA-MB-468. The note with it: Homo sapiens; MDA-MB-468, Breast Cancer. The procedure: as §1
In the next experiment the test system is PC-3. The note with it: Homo sapiens; PC-3, Prostate Cancer. How it is done: as §1
The next experiment deals with SR. The note with it: Homo sapiens, Leukemia. The procedure: as §1
The subject of another experiment is SW-620. The following applies: Homo sapiens; SW-620, Colon Cancer. The procedure: as §1
In the next experiment the test system is MOLT-4. The following applies: Homo sapiens; MOLT-4, Leukemia. How it is done: as §1
Another experiment has as its system OVCAR-8. The note with it: Homo sapiens; OVCAR-8, Ovarian Cancer. How it is done: as §1
The next experiment relates to SK-MEL-5. The note with it: Homo sapiens; SK-MEL-5, Melanoma. The procedure: as §1
A further experiment concerns A549/ATCC. The note with it: Homo sapiens, Non-small-Cell Lung Cancer. How it is done:
as §1

A further experiment deals with SK-MEL-2. The following applies: Homo sapiens; SK-MEL-2, Melanoma. How it is done:
as §1

In a further experiment the test system is CAKI-1. The following applies: Homo sapiens; CAKI-1, Renal Cancer. The procedure:
as §1

The next experiment deals with CCRF-CEM. The note with it: Homo sapiens, Leukemia. How it is done: as §1
The next experiment deals with SK-OV-3. The note with it: Homo sapiens; SK-OV-3, Ovarian Cancer. The procedure:
as §1

The test system of the next experiment is SF-539. The following applies: Homo sapiens; SF-539, CNS Cancer. How it is done: as §1
A further experiment concerns HCC-2998. The following applies: Homo sapiens; HCC-2998, Colon Cancer. The procedure:
as §1

Another experiment deals with SNB-75. The note with it: Homo sapiens; SNB-75, CNS Cancer. The procedure: as §1
The subject of another experiment is NCI-H23. The note with it: Homo sapiens; NCI-H23, Non-small-Cell Lung Cancer. How it is done:
as §1

In the next experiment the test system is HT29. The following applies: Homo sapiens, HT-29; HT29, Colon Cancer. How it is done: as §1
Another experiment concerns OVCAR-4. The note with it: Homo sapiens; OVCAR-4, Ovarian Cancer. How it is done: as §1
In another experiment the test system is COLO 205. The following applies: Homo sapiens; COLO 205, Colon Cancer. The procedure:
as §1

As usually defined, the GI50 is the concentration giving 50% growth inhibition.

With `COc1ccc([P+](CCCCOc2cc(O)c3c(=O)cc(-c4ccccc4)oc3c2)(c2ccc(OC)cc2)c2ccc(OC)cc2)cc1` [3c], the GI50 is 1280 nM in the experiment on ACHN; 235 nM with RPMI-8226; 462 nM in the experiment on EKVX; 248 nM in the experiment on MDA-MB-468; 320 nM in the experiment with PC-3; 300 nM with SR. The GI50 came to 351 nM in the experiment with SW-620; 453 nM in the experiment on MOLT-4; 408 nM with OVCAR-8; 331 nM with SK-MEL-5; 600 nM in the experiment on A549/ATCC; 301 nM in the experiment with SK-MEL-2. Further, the GI50 in the experiment with CAKI-1 came out at 1030 nM; in the experiment on CCRF-CEM, 367 nM; in the experiment with SK-OV-3, 382 nM; in the experiment with SF-539, 410 nM; in the experiment with HCC-2998, 300 nM; in the experiment with SNB-75, 344 nM. The 50% growth inhibitory concentration (GI50) in the experiment with NCI-H23 was 423 nM; in the experiment with HT29, 1250 nM; with OVCAR-4 it was 382 nM; with COLO 205 it was 455 nM.
Turning to `Cc1ccccc1[P+](CCCCOc1cc(O)c2c(=O)cc(-c3ccccc3)oc2c1)(c1ccccc1C)c1ccccc1C` [3g], the GI50 in the experiment on ACHN amounted to 569 nM; in the experiment with RPMI-8226 it was 135 nM; with MDA-MB-468, 148 nM; with PC-3, 308 nM; in the experiment with SR, 206 nM; with SW-620 it was 274 nM. The GI50 is 235 nM in the experiment with MOLT-4; 560 nM in the experiment with OVCAR-8; 198 nM in the experiment with SK-MEL-5; 417 nM in the experiment with A549/ATCC; 194 nM with SK-MEL-2; 309 nM with CAKI-1. The GI50 in the experiment with CCRF-CEM turned out to be 242 nM; in the experiment with SK-OV-3, 277 nM; in the experiment on SF-539 it was 187 nM; in the experiment on HCC-2998 it was 239 nM; with SNB-75, 274 nM; in the experiment on NCI-H23, 243 nM. For the same compound, the GI50 in the experiment with HT29 was found to be 1220 nM; in the experiment with OVCAR-4 it was 429 nM; in the experiment on COLO 205 it was 351 nM.
As for `O=c1cc(-c2ccccc2)oc2cc(OCCCC[P+](c3ccccc3)(c3ccccc3)c3ccccc3)cc(O)c12` [3a], the 50% growth inhibitory concentration (GI50) was 633 nM in the experiment on ACHN; 205 nM in the experiment on RPMI-8226; 317 nM in the experiment on EKVX; 128 nM in the experiment with MDA-MB-468; 305 nM with PC-3; 289 nM in the experiment with SR. The GI50 was determined as 343 nM in the experiment with SW-620; 338 nM with MOLT-4; 350 nM in the experiment with OVCAR-8; 166 nM with SK-MEL-5; 908 nM with A549/ATCC; 238 nM in the experiment with SK-MEL-2. Moreover, the GI50 with CAKI-1 turned out to be 385 nM; with CCRF-CEM it was 335 nM; with SK-OV-3, 329 nM; in the experiment on SF-539, 380 nM; in the experiment with HCC-2998, 345 nM; with SNB-75, 165 nM. Besides, the concentration for 50% growth inhibition (GI50) in the experiment on NCI-H23 amounted to 302 nM; in the experiment on HT29 it was 1280 nM; in the experiment on OVCAR-4 it was 370 nM; in the experiment on COLO 205 it was 1020 nM.
Take `O=c1cc(-c2ccccc2)oc2cc(OCCCC[P+](C3CCCCC3)(C3CCCCC3)C3CCCCC3)cc(O)c12` [3e]: the GI50 in the experiment on ACHN is 1520 nM; in the experiment with RPMI-8226, 182 nM; in the experiment with EKVX, 1060 nM; with MDA-MB-468 it was 273 nM; in the experiment with PC-3, 501 nM; with SR, 260 nM. For the same compound, the 50% growth inhibitory concentration (GI50) in the experiment with SW-620 stood at 649 nM; in the experiment with MOLT-4 it was 1010 nM; with OVCAR-8, 595 nM; in the experiment on SK-MEL-5, 369 nM; with A549/ATCC, 1330 nM; in the experiment with SK-MEL-2, 1320 nM. The GI50 in the experiment on CAKI-1 is 1570 nM; with CCRF-CEM, 477 nM; with SK-OV-3, 1470 nM; in the experiment with SF-539, 751 nM; with HCC-2998, 504 nM; in the experiment on SNB-75 it was 529 nM. The GI50 in the experiment with NCI-H23 was 1340 nM; in the experiment on HT29, 1770 nM; in the experiment with OVCAR-4, 686 nM; with COLO 205, 812 nM.
With `COc1c(C)cc([P+](CCCCOc2cc(O)c3c(=O)cc(-c4ccccc4)oc3c2)(c2cc(C)c(OC)c(C)c2)c2cc(C)c(OC)c(C)c2)cc1C` [3f], the 50% growth inhibitory concentration (GI50) with ACHN worked out at 371 nM; with RPMI-8226 it was 110 nM; with EKVX, 309 nM; with MDA-MB-468, 64 nM; in the experiment with PC-3 it was 276 nM; in the experiment on SR, 162 nM. In addition, the 50% growth inhibitory concentration (GI50) with SW-620 came out at 323 nM; in the experiment with MOLT-4 it was 238 nM; in the experiment on OVCAR-8, 350 nM; in the experiment with SK-MEL-5, 168 nM; in the experiment with A549/ATCC, 314 nM; with SK-MEL-2, 292 nM. In addition, the GI50 worked out at 275 nM in the experiment on CAKI-1; 103 nM in the experiment with CCRF-CEM; 263 nM in the experiment with SK-OV-3; 367 nM in the experiment with SF-539; 297 nM in the experiment on HCC-2998; 213 nM in the experiment on SNB-75. Besides, the GI50 came to 283 nM in the experiment with NCI-H23, 646 nM in the experiment with HT29, 351 nM in the experiment on OVCAR-4 and 791 nM in the experiment with COLO 205.
In the case of `O=c1cc(-c2ccccc2)oc2cc(OCCCC[P+](c3ccccc3)(c3ccccc3)c3ccccn3)cc(O)c12` [3h], the GI50 was 1640 nM with ACHN; 248 nM in the experiment on RPMI-8226; 1120 nM in the experiment on EKVX; 176 nM with MDA-MB-468; 572 nM with PC-3; 214 nM with SR. The GI50 in the experiment on SW-620 came out at 901 nM; with MOLT-4 it was 424 nM; in the experiment with OVCAR-8, 494 nM; in the experiment on SK-MEL-5, 278 nM; with A549/ATCC, 1130 nM; in the experiment with SK-MEL-2, 758 nM. Also, the GI50 with CAKI-1 came out at 1540 nM; in the experiment on CCRF-CEM, 334 nM; in the experiment on SK-OV-3, 1520 nM; in the experiment with SF-539 it was 1060 nM; in the experiment with HCC-2998, 445 nM; with SNB-75, 572 nM. The 50% growth inhibitory concentration (GI50) in the experiment on NCI-H23 was 776 nM; with HT29 it was 1750 nM; with OVCAR-4, 1140 nM; in the experiment on COLO 205 it was 1640 nM.
